From US12357632B2, “Methods of treating cholangiocarcinoma” (QED Therapeutics, Inc., priority 2019, dated 2025)

Tests used:
[1] = test system: advanced or metastatic cholangiocarcinoma with FGFR genetic alterations; experiment: Phase II study of oral BGJ398 in advanced or metastatic cholangiocarcinoma, Patient 5010004 (RECIST v1.1); assay type: in vivo, human; details: Patient 5010004, oral erdafitinib prior to study treatment
Procedure: This is a multi-center, open label, single arm phase II study evaluating BGJ398 anti-tumor activity in advanced or metastatic cholangiocarcinoma patients with FGFR genetic alterations. 125 mg of oral, monotherapy BGJ398 is administered once daily for the first 3 weeks (21 days) of each 28-day cycle. The starting dose of 125 mg may be reduced to 100 mg, 75 mg, or 50 mg. The treatment period begins on Cycle 1, Day 1, and continues until disease progression, unacceptable toxicity, withdrawal of informed consent, or death. Patients are evaluated for tumor response radiographically every 8 weeks until disease progression or discontinuation from study using RECIST v1.1 criteria.
Adult patients with histologically or cytologically confirmed advanced or metastatic cholangiocarcinoma with FGFR2 gene fusions or translocations or other FGFR genetic alteration who have evidence of radiologic progression following a cisplatin- and gemcitabine-containing regimen for advanced disease or a gemcitabine-containing regimen for those who are considered intolerant to cisplatin are enrolled. Up to approximately 160 adult patients over age 18, both male and female are enrolled. Three cohorts of patients comprise the study population: • Cohort 1: ˜120 patients, 108 with FGFR2 gene fusions or translocations and 12 with other FGFR genetic alterations. • Cohort 2: ˜20 patients with FGFR genetic alterations other than FGFR2 gene fusions or translocations. • Cohort 3: Up to ˜20 patients with FGFR2 gene fusions or translocations who have received a prior FGFR inhibitor. Main Inclusion Criteria
Tumor response according to RECIST v1.1, and survival.
During treatment with infigratinib, the patient's response was determined by follow-up assessments conducted by a local investigator per RECIST v1.1.

[2] = Tolerability (body weight, clinical observations) in Vex-MR086M1 xenograft study; assay type: in vivo, Mouse (Mus musculus)
Procedure: (§1) All animals were weighed at the same time as tumor size measurement. A Relative Body Weight loss (RBW loss) was considered as adverse effect of the treatment.
(§2) Mice were observed every day for physical appearance, behavior and clinical changes.
(§3) Relative Body Weight (RBW) is calculated for each measurement by dividing the body weight by the body weight at the start of treatment.
(§4) Individual Body weight loss percent (% BWL)=100−(BWX/BW0×100), where BWX is the BW at any day during the treatment and BW0 is the BW on the day of inclusion.
(§5) Mean Body weight loss percent (% BWL)=100−(mean BWX/mean BW0×100), where BWX is the mean BW at any day during the treatment and BW0 is the mean BW on the day of inclusion.

[3] = Tolerability (body weight, clinical observations) in UREx-MR2057PD-AR xenograft study; assay type: in vivo, Mouse (Mus musculus)
Procedure: as §1, §2, §3, §4, §5

cholangiocarcinoma = details: ABC-02 trial (Valle et al., 2010); cited from earlier work

Row | Compound | best response [1] | time to discontinuation due to radiological disease progression [1] | clinical observations ([2]; erdafitinib 15 mg/kg PO qdx21) | mean body weight loss ([2]; erdafitinib 15 mg/kg PO qdx21) | tolerability ([2]; erdafitinib 15 mg/kg PO qdx21) | maximum individual body weight loss ([2]; erdafitinib 15 mg/kg PO qdx21, on D17) | clinical observations ([3]; erdafitinib 15 mg/kg PO qdx21) | maximum mean body weight loss ([3]; erdafitinib 15 mg/kg PO qdx21) | tolerability ([3]; erdafitinib 15 mg/kg PO qdx21) | maximum individual body weight loss ([3]; erdafitinib 15 mg/kg PO qdx21, on D3) | median overall survival (cholangiocarcinoma) | median progression-free survival (cholangiocarcinoma)
1 | COc1cc(OC)cc(N(CCNC(C)C)c2ccc3ncc(-c4cnn(C)c4)nc3c2)c1 [Erdafitinib, reference compound] | progressive disease | approximately 2 months | No relevant observable signs were reported | no mean body weight loss | well tolerated except for 1 mouse | 10.6% | No relevant observable signs were reported | no maximum mean body weight loss | well tolerated | 4.9% | – | –
2 | Nc1ccn([C@@H]2O[C@H](CO)[C@@H](O)C2(F)F)c(=O)n1 [gemcitabine] | – | – | – | – | – | – | – | – | – | – | 8.1 months | 5.0 months
